Columns and labels:
Assay in all cases: relative viability (nuclei count vs DMSO), 5 days (fraction); higher = more cells survive
[1] = system: BEN
In short: (§1)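 For relative viability, nuclei counts in treated wells were divided by those in vehicle wells. Lung cancer cell lines had been pin-tool dosed in 1536-well plates the day after seeding and cultured for 5 days, then fixed and stained in one step (final 0.05% Triton X-100, 1% formaldehyde, 1 ug/ml Hoechst) and imaged at 4×. Doses were one drug alone or a fixed anchor-drug dose plus five library-drug doses (not always all listed) in √10 steps, and values are duplicate-plate medians.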

[2] = system: CAL-12T
In short: as §1

[3] = system: COR-L23
In short: as §1

[4] = system: HCC-44
In short: as §1

[5] = system: LU99A
In short: as §1

[6] = system: LXF-289
In short: as §1

[7] = system: NCI-H1355
In short: as §1

[8] = system: NCI-H1437
In short: as §1

[9] = system: NCI-H1563
In short: as §1

[10] = system: NCI-H1650
In short: as §1

[11] = system: NCI-H1651
In short: as §1

What does the source list for `Cc1csc(=NC2CCCCC2)n1/N=C/c1ccc(O)c(O)c1O` [MIM1] + CS(=O)(=O)CCNCc1ccc(-c2ccc3ncnc(Nc4ccc(OCc5cccc(F)c5)c(Cl)c4)c3c2)o1 [Lapatinib] (partner 2 µM)?
relative viability ([1]; first compound 0.2 µM): 0.732; relative viability ([1]; first compound 0.6325 µM): 0.674; relative viability ([1]; first compound 2 µM): 0.843; relative viability ([1]; first compound 6.325 µM): 0.622; relative viability ([1]; first compound 20 µM): 0.193; relative viability ([2]; first compound 0.2 µM): 0.615; relative viability ([2]; first compound 2 µM): 0.754; relative viability ([2]; first compound 6.325 µM): 0.578; relative viability ([2]; first compound 20 µM): 0.22; relative viability ([3]; first compound 0.2 µM): 0.931; relative viability ([3]; first compound 0.6325 µM): 1.07; relative viability ([3]; first compound 2 µM): 0.844; relative viability ([3]; first compound 6.325 µM): 0.619; relative viability ([3]; first compound 20 µM): 0.286; relative viability ([4]; first compound 0.2 µM): 1.07; relative viability ([4]; first compound 0.6325 µM): 0.969; relative viability ([4]; first compound 2 µM): 0.798; relative viability ([4]; first compound 6.325 µM): 0.346; relative viability ([4]; first compound 20 µM): 0.128; relative viability ([5]; first compound 0.2 µM): 1.08; relative viability ([5]; first compound 0.6325 µM): 0.894; relative viability ([5]; first compound 2 µM): 0.779; relative viability ([5]; first compound 6.325 µM): 0.915; relative viability ([5]; first compound 20 µM): 0.282; relative viability ([6]; first compound 0.2 µM): 0.868; relative viability ([6]; first compound 0.6325 µM): 0.802; relative viability ([6]; first compound 2 µM): 0.895; relative viability ([6]; first compound 6.325 µM): 0.664; relative viability ([6]; first compound 20 µM): 0.592; relative viability ([7]; first compound 0.2 µM): 0.988; relative viability ([7]; first compound 0.6325 µM): 0.902; relative viability ([7]; first compound 2 µM): 0.967; relative viability ([7]; first compound 6.325 µM): 0.738; relative viability ([7]; first compound 20 µM): 0.483; relative viability ([8]; first compound 0.2 µM): 0.761; relative viability ([8]; first compound 0.6325 µM): 0.672; relative viability ([8]; first compound 2 µM): 0.91; relative viability ([8]; first compound 6.325 µM): 0.456; relative viability ([8]; first compound 20 µM): 0.148; relative viability ([9]; first compound 0.2 µM): 0.903; relative viability ([9]; first compound 0.6325 µM): 1.04; relative viability ([9]; first compound 2 µM): 0.853; relative viability ([9]; first compound 6.325 µM): 0.825; relative viability ([9]; first compound 20 µM): 0.462; relative viability ([10]; first compound 0.2 µM): 0.788; relative viability ([10]; first compound 0.6325 µM): 0.566; relative viability ([10]; first compound 2 µM): 0.565; relative viability ([10]; first compound 6.325 µM): 0.204; relative viability ([10]; first compound 20 µM): 0.148; relative viability ([11]; first compound 0.2 µM): 0.883; relative viability ([11]; first compound 0.6325 µM): 0.854; relative viability ([11]; first compound 2 µM): 0.95; relative viability ([11]; first compound 6.325 µM): 0.655; relative viability ([11]; first compound 20 µM): 0.274

Reference: the supplement of paper PMC10307832
